In ChEMBL document CHEMBL3784990, “Synthesis and in vitro anticancer evaluation of some 4,6-diamino-1,3,5-triazine-2-carbohydrazides as Rad6 ubiquitin conjugating enzyme inhibitors” (Bioorg Med Chem Lett, 2016):
Active and inactive are the calls of the source. No cut-off for these calls is given here.

What was measured:
[1] = Cytotoxicity against human OV90 cells after 72 hrs by MTS assay; format: functional, cell-based; conditions: OV-90, 72 h
A2780 = assay: Cytotoxicity against human A2780 cells after 72 hrs by MTS assay; format: functional, cell-based; conditions: A2780, 72 h
MCF7 = assay: Cytotoxicity against human MCF7 cells after 72 hrs by MTS assay; format: functional, cell-based; conditions: MCF7, 72 h
MDA-MB-231 = assay: Cytotoxicity against human MDA-MB-231 cells after 72 hrs by MTS assay; format: functional, cell-based; conditions: MDA-MB-231, 72 h
A549 = assay: Cytotoxicity against human A549 cells after 72 hrs by MTS assay; format: functional, cell-based; conditions: A549, 72 h
[2] = Cytotoxicity against human H1299 cells after 72 hrs by MTS assay; format: functional, cell-based; conditions: NCI-H1299, 72 h
HT-29 = assay: Cytotoxicity against human HT-29 cells after 72 hrs by MTS assay; format: functional, cell-based; conditions: HT-29, 72 h
[3] = molecular target: Ubiquitin-conjugating enzyme E2 B (Homo sapiens) (UniProt P63146); assay: Inhibition of human recombinant Rad6B assessed as suppression of Rad6B conjugation to ubiquitin at 25 nM pre-incubated for 1 hr by Western blot analysis
Sequence of Ubiquitin-conjugating enzyme E2 B (Homo sapiens) (P63146 whole entry): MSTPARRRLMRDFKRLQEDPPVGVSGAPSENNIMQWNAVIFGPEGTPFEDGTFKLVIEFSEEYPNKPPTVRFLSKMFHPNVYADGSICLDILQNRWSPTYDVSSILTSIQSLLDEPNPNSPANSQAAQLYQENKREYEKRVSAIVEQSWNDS

[4] = molecular target: Ubiquitin-conjugating enzyme E2 B (Homo sapiens) (UniProt P63146); assay: Inhibition of human recombinant Rad6B assessed as suppression of H2A substrate ubiquitination at 25 nM pre-incubated for 1 hr before H2A addition by Western blot analysis

| Structure (SMILES) | inhibition [3] | inhibition [4] | IC50 [1] | IC50 (A2780) | IC50 (MCF7) | IC50 (MDA-MB-231) | IC50 (A549) | IC50 [2] | IC50 (HT-29) |
| --- | --- | --- | --- | --- | --- | --- | --- | --- | --- |
| COc1ccc(Nc2nc(Nc3ccc(OC)cc3)nc(C(=O)NNc3ccccc3)n2)cc1 | Active | Active | 12 µM | 6.3 µM | 7.2 µM | 4.2 µM | 10.8 µM | 5 µM | 5.8 µM |
| O=C(NNc1ccccc1)c1nc(Nc2ccc(Cl)cc2)nc(Nc2ccc(Cl)cc2)n1 | Active | Active | 60 µM | 8.2 µM | 4.2 µM | 3.5 µM | 7.8 µM | 15 µM | 4.1 µM |
| O=C(NNc1ccccc1)c1nc(Nc2ccccc2)nc(Nc2ccccc2)n1 | Active | Active | 8 µM | 7.1 µM | 6 µM | 2.5 µM | 14.6 µM | 11 µM | 9.5 µM |
| COc1ccccc1Nc1nc(Nc2ccccc2OC)nc(C(=O)NNc2ccccc2)n1 | Active |  | 10 µM | 5 µM | 7.2 µM | 3.9 µM | 6.9 µM | 26 µM | 8.9 µM |
| Cc1ccc(Nc2nc(Nc3ccc(C)cc3)nc(C(=O)NNc3ccccc3)n2)cc1 | Active | Active | 5 µM | 3.6 µM | 4.2 µM | 3.5 µM | 11.6 µM | 22 µM | 5.2 µM |

Now from value to compound, other results behind:

| inhibition [3] | inhibition [4] | Structure (SMILES) | IC50 [1] | IC50 (A2780) | IC50 (MCF7) | IC50 (MDA-MB-231) | IC50 (A549) | IC50 [2] | IC50 (HT-29) |
| --- | --- | --- | --- | --- | --- | --- | --- | --- | --- |
| Active |  | NNC(=O)c1nc(N)nc(Nc2ccccc2)n1 | 75 µM | 7.3 µM | 5.9 µM | 2.6 µM | 7.8 µM | 65 µM | 3.3 µM |
| Active |  | Cc1ccc(Nc2nc(N)nc(C(=O)NN)n2)cc1 | 60 µM | 5.5 µM | 16 µM | 12.7 µM | 9.3 µM | 40 µM | 4.5 µM |
| Active |  | NNC(=O)c1nc(N)nc(Nc2ccc(Cl)cc2)n1 | 85 µM | 36.6 µM | 8.8 µM | 24.6 µM | 7.5 µM | 30 µM | 4.6 µM |
| Active |  | COc1ccc(Nc2nc(N)nc(C(=O)NN)n2)cc1 | 80 µM | 14.7 µM | 6.2 µM | 7.6 µM | 5.2 µM | 65 µM | 5.4 µM |
| Active | Active | Nc1nc(COC(=O)c2ccc([N+](=O)[O-])cc2)nc(Nc2ccccc2)n1 | 60 µM | 7.8 µM | 5 µM | 4.6 µM | 7.2 µM | 45 µM | 8.3 µM |
| Active |  | COc1ccccc1Nc1nc(N)nc(C(=O)NN)n1 | 90 µM | 5.6 µM | 11.8 µM | 15.7 µM | 7.5 µM | 50 µM | 8.6 µM |
